Data: paper PMC11026318, “Radiolabeled 15-mer peptide internalization is mediated by megalin (LRP2 receptor) in a CRISPR/Cas9-based LRP2 knockout human kidney cell model” (EJNMMI Radiopharmacy and Chemistry, 2024)
Blank lines part the entries; values can stand above or below the compound they belong to.

How the values were obtained:
[1] = test system: HK2 cells (parent, partial KO, LRP2 KO); assay: Viability assay with gentamicin at cytotoxic concentration (CellTiter 96 AQueous One); format: cell-based, human; conditions: gentamicin 6 mg/mL, 48 h
Description: The cells were seeded in a 96-well plate (10^4 cells per well) 24 h prior to the experiment. The cells treated with gentamicin at cytotoxic concentration (6 mg/mL) were incubated in parallel with the controls in standard culture medium (representing 100% cell viability). The cells cultivated with 10% DMSO in culture medium represent 0% cell viability, which was measured after 48 h using the CellTiter 96® AQueous One Solution Cell Proliferation Assay (Promega) according to the manufacturer’s protocol. Absorbance was detected using a spectrophotometric plate reader (TECAN Infinite M200).

[2] = target: T1, megalin (LRP2 receptor) in HK2 cells (Homo sapiens, UniProt P98164); assay: FITC-albumin accumulation studies in parent HK2 vs LRP2 knockout cells; format: cell-based; conditions: 24 µg/mL, 2 h; fluorescence of cell lysates related to total protein
T1 construct: a human kidney cell line with high endogenous megalin expression; host or cells: HK2 human kidney epithelial cells (parent), compared with CRISPR/Cas9 LRP2 KO derivatives
Description: The CRISPR/cas9 gene editing technique was implemented to generate LRP2 KO HK2 cells (Fig. 1) employing designed sgRNA sequences (Table 1). HK2 cells were seeded on 24-well plate (10^5 cells/well). Cells were transfected by sgRNA (720 ng per reaction) and TrueCut™ Cas9 Protein v2 (3 840 ng per reaction; Invitrogen) using Lipofectamine™ CRISPRMAX™ Cas9 Transfection Reagent (Invitrogen) according to the manufacturer’s instructions 24 h after seeding. The knockout reactions were repeated twice for each sgRNA. Each transfection was performed after 48 h of recovery. The final group of cells transfected sequentially six times was designated as LRP2 KO. A group of cells transfected only once with NPMY sgRNA but twice with TMD and PPPSPS sgRNAs, was designated as partial KO (Figs. 2A–E, 5A and B).
The accumulation studies of fluorescein isothiocyanate-labelled albumin (FITC-albumin, Merck) were performed in 24-well plates (10^5 cells per well). The cells were incubated with 24 µg/mL FITC-albumin, and Passive Lysis Buffer (Promega) was added to lyse the cells after 2 h treatment. The accumulated FITC-albumin was quantified by measuring the fluorescence intensity of cell lysates (Tecan Spark® multimode microplate reader). Fluorescence intensity was plotted against total protein concentration determined by the commercially available Pierce™ BCA Protein Assay Kit (ThermoFisher Scientific).

[3] = test system: vascular endothelial growth factor (VEGF) receptor; conditions: in both in vitro and in vivo studies; ref Basile et al. [2011]; cited from earlier work

T1 sequence (P98164 26-4655): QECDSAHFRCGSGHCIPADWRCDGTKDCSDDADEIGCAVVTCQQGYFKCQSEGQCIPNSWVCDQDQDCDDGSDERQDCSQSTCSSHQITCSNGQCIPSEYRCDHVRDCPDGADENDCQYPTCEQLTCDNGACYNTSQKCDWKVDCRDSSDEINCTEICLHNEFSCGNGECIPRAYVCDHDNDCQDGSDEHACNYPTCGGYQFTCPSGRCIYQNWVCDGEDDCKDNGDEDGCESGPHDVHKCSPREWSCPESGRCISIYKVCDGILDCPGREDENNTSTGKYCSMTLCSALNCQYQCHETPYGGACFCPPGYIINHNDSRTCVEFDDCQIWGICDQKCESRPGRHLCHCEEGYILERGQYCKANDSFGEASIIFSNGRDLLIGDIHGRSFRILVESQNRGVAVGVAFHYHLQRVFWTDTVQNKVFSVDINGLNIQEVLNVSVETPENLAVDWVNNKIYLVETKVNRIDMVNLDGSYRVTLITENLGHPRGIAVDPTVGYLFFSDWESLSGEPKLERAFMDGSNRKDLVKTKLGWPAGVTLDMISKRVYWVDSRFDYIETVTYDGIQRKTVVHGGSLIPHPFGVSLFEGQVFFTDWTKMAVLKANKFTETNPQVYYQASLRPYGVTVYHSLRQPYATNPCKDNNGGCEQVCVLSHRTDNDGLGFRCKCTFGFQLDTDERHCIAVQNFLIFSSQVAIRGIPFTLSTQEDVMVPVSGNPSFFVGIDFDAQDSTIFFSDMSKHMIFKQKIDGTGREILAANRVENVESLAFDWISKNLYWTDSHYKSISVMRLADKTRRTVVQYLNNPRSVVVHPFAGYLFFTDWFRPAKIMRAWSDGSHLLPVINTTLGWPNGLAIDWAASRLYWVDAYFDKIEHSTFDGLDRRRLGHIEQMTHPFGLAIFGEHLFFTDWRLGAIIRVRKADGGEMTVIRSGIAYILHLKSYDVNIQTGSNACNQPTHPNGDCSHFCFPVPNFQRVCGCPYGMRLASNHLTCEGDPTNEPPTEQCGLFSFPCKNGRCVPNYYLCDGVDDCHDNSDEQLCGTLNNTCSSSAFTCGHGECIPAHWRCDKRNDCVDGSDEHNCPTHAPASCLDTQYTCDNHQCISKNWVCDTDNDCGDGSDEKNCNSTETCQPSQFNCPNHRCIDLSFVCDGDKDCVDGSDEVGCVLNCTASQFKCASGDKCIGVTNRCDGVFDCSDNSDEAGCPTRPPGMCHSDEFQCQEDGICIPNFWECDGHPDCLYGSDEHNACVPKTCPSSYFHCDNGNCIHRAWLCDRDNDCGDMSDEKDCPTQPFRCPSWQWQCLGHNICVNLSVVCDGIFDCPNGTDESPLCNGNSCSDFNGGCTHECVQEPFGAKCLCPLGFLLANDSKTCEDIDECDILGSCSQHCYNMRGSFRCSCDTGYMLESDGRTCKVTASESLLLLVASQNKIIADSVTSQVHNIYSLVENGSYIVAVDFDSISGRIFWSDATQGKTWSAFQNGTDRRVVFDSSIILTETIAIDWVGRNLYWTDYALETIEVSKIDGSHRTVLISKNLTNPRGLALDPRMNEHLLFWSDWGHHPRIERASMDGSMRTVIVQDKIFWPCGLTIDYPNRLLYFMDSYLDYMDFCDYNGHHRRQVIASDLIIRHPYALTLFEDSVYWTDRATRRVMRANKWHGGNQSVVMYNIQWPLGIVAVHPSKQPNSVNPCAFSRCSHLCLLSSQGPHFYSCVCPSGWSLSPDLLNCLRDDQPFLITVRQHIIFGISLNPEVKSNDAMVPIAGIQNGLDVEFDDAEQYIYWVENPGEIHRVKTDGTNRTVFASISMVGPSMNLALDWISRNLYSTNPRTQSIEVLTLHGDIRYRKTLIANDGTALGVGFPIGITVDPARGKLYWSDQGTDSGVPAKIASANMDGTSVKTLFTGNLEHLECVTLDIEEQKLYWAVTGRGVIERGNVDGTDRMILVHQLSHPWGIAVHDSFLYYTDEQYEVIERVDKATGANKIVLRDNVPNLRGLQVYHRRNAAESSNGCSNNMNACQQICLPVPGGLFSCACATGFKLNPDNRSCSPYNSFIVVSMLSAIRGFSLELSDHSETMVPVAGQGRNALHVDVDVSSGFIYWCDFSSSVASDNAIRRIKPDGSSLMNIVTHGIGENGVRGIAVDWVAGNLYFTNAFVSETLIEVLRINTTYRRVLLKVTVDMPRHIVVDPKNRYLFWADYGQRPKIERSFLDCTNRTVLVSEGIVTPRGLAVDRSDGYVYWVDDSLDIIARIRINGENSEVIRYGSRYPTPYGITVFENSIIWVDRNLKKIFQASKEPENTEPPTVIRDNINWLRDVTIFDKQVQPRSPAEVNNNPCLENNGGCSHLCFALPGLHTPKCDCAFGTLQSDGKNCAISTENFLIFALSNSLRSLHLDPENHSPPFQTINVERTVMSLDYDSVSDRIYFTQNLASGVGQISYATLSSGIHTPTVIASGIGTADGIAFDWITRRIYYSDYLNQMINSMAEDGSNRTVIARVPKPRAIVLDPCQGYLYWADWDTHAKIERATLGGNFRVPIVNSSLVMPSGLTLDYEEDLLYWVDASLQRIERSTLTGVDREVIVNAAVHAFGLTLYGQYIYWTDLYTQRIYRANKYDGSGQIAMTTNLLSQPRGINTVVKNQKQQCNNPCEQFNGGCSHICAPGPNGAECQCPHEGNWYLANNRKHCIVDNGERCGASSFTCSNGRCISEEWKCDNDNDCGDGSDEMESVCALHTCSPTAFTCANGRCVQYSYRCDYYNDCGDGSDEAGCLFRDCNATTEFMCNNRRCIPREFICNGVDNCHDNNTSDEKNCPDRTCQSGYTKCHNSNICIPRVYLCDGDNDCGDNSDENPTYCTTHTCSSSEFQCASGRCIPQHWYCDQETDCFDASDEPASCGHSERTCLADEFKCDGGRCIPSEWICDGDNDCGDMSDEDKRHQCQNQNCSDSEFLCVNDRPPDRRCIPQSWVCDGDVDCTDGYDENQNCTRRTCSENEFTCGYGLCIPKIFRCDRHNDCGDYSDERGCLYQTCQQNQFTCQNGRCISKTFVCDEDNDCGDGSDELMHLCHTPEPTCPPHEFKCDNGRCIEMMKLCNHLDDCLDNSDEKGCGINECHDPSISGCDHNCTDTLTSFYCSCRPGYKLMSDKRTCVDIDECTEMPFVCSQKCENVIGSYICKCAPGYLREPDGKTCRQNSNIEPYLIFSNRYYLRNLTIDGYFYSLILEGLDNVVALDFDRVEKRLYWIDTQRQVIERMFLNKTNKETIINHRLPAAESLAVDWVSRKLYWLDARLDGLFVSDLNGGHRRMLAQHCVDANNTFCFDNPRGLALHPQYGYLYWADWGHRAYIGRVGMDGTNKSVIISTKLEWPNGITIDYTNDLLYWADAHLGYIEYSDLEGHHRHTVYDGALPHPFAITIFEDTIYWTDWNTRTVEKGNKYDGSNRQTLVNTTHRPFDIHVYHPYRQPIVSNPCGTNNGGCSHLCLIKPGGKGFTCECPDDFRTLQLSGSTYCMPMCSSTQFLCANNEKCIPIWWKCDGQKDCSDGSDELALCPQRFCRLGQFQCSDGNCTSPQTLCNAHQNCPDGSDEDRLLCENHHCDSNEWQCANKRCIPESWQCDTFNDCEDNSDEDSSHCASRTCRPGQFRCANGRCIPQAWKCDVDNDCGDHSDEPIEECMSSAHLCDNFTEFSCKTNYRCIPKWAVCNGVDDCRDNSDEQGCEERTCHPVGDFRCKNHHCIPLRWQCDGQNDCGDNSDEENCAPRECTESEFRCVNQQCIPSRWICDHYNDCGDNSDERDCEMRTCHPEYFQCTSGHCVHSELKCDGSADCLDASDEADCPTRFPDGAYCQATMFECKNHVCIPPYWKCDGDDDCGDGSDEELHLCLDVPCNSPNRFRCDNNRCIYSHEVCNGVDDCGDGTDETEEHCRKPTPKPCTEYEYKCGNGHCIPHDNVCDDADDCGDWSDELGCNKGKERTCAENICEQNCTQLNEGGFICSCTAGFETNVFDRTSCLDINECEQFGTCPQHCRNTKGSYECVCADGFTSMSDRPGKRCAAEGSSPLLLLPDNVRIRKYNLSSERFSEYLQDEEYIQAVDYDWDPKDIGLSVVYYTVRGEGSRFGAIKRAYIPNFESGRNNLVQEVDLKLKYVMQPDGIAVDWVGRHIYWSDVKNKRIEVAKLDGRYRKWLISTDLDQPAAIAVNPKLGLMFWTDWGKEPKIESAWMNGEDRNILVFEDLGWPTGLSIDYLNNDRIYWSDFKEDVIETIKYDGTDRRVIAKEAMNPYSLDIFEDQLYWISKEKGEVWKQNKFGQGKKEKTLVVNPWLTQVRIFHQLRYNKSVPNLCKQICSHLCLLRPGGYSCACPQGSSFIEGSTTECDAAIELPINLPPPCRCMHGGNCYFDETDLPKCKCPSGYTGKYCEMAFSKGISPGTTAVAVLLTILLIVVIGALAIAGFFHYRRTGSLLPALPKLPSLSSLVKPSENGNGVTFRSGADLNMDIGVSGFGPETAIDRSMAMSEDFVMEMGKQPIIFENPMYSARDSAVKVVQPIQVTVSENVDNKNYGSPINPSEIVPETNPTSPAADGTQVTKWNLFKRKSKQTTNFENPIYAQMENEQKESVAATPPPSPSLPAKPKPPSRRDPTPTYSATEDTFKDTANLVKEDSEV

Compound: CNC(C)C1CCC(N)C(OC2C(N)CC(N)C(OC3OCC(C)(O)C(NC)C3O)C2O)O1 (stereo not drawn) [gentamicin]
- Viability of partial KO or LRP2 KO cells after treatment, compared to HK2 parent cells [1]: higher viability

- FITC-albumin accumulation in KO cells vs parent HK2 cells [2]: Reduced FITC-albumin accumulation
Compound: fluorescein isothiocyanate-labelled albumin [FITC-albumin]

Compound: Ac-KLTWMELYQLAYKGI-NH2 [15-mer, 15 amino acid anti-VEGFR peptide, custom synthesized according to a previously published structure (Basile et al. 2011)]
- Antiangiogenic effects [3]: potent antiangiogenic effects
